In brackets after ≈: the same amount, converted by molar mass.
What was measured:
Acinetobacter baumannii = experiment: Antibacterial activity against Acinetobacter baumannii assessed as bacterial growth inhibition measured after 24 hrs by two fold serial dilution technique; format: functional
Enterococcus faecium = experiment: Antibacterial activity against Enterococcus faecium assessed as bacterial growth inhibition measured after 24 hrs by two fold serial dilution technique; format: functional
Pseudomonas aeruginosa [1] = experiment: Antibacterial activity against Pseudomonas aeruginosa assessed as bacterial growth inhibition measured after 24 hrs by two fold serial dilution technique; format: functional
Escherichia coli [2] = experiment: Antibacterial activity against Escherichia coli assessed as bacterial growth inhibition measured after 24 hrs by two fold serial dilution technique; format: functional
Pseudomonas aeruginosa [3] = experiment: Antibacterial activity against Pseudomonas aeruginosa ATCC 27853 assessed as bacterial growth inhibition measured after 24 hrs by two fold serial dilution technique; format: functional
Escherichia coli [4] = experiment: Antibacterial activity against Escherichia coli ATCC 25922 assessed as bacterial growth inhibition measured after 24 hrs by two fold serial dilution technique; format: functional
[5] = Hemolytic activity in human RBC assessed as hemolysis incubated for 1 hr; format: toxicity, cell-based, Erythrocyte; settings: red blood cells
Staphylococcus aureus [6] = experiment: Antibacterial activity against Staphylococcus aureus ATCC 25923 assessed as bacterial growth inhibition measured after 24 hrs by two fold serial dilution technique; format: functional
Staphylococcus aureus [7] = experiment: Antibacterial activity against Staphylococcus aureus assessed as bacterial growth inhibition measured after 24 hrs by two fold serial dilution technique; format: functional
Staphylococcus aureus [8] = experiment: Antibacterial activity against methicillin-resistant Staphylococcus aureus assessed as bacterial growth inhibition measured after 24 hrs by two fold serial dilution technique; format: functional
Staphylococcus aureus [9] = experiment: Antibacterial activity against Staphylococcus aureus ATCC 29213 assessed as bacterial growth inhibition measured after 24 hrs by two fold serial dilution technique; format: functional
Klebsiella pneumoniae = experiment: Antibacterial activity against Klebsiella pneumoniae assessed as bacterial growth inhibition measured after 24 hrs by two fold serial dilution technique; format: functional

Row | Compound | MIC (Acinetobacter baumannii) [µg/mL] | MIC (Enterococcus faecium) [µg/mL] | MIC (Pseudomonas aeruginosa [1]) [µg/mL] | MIC (Escherichia coli [2]) [µg/mL] | MIC (Pseudomonas aeruginosa [3]) [µg/mL] | MIC (Escherichia coli [4]) [µg/mL] | HC50 at 1 h [5] [µg/mL] | MIC (Staphylococcus aureus [6]) [µg/mL] | MIC (Staphylococcus aureus [7]) [µg/mL] | MIC (Staphylococcus aureus [8]) [µg/mL] | MIC (Staphylococcus aureus [9]) [µg/mL] | MIC (Klebsiella pneumoniae) [µg/mL]
1 | CO/N=C(\C(=O)N1CCN(c2ccc3c4c(cccc24)C(=O)N(NC(C)=O)C3=O)CC1)c1csc(N)n1 | 16 (≈ 30.7 µM) | 32 (≈ 61.4 µM) | 32 (≈ 61.4 µM) | 4 (≈ 7.67 µM) | 32 (≈ 61.4 µM) | 64 (≈ 123 µM) | 180 | 64 (≈ 123 µM) | 64 (≈ 123 µM) | 4 (≈ 7.67 µM) | 32 (≈ 61.4 µM) | 32 (≈ 61.4 µM)
2 | CO/N=C(\C(=O)N1CCN(c2ccc3c4c(cccc24)C(=O)N(C2CC2)C3=O)CC1)c1csc(N)n1 | 16 (≈ 31.7 µM) | 32 (≈ 63.4 µM) | 64 (≈ 127 µM) | 32 (≈ 63.4 µM) | 128 (≈ 254 µM) | 64 (≈ 127 µM) | 266 | 16 (≈ 31.7 µM) | 32 (≈ 63.4 µM) | 32 (≈ 63.4 µM) | 64 (≈ 127 µM) | 32 (≈ 63.4 µM)
3 | CO/N=C(\C(=O)N1CCN(c2ccc3c4c(cccc24)C(=O)N(c2nccs2)C3=O)CC1)c1csc(N)n1 | 16 (≈ 29.2 µM) | 16 (≈ 29.2 µM) | 64 (≈ 117 µM) | 16 (≈ 29.2 µM) | 64 (≈ 117 µM) | 64 (≈ 117 µM) | 311 | 16 (≈ 29.2 µM) | 16 (≈ 29.2 µM) | 2 (≈ 3.65 µM) | 32 (≈ 58.4 µM) | 64 (≈ 117 µM)
4 | CO/N=C(\C(=O)N1CCN(c2ccc3c4c(cccc24)C(=O)N(c2nc4ccccc4[nH]2)C3=O)CC1)c1csc(N)n1 | 128 (≈ 220 µM) | 128 (≈ 220 µM) | 16 (≈ 27.6 µM) | 256 (≈ 441 µM) | 32 (≈ 55.1 µM) | 16 (≈ 27.6 µM) | 367 | 128 (≈ 220 µM) | 128 (≈ 220 µM) | 4 (≈ 6.89 µM) | 128 (≈ 220 µM) | 8 (≈ 13.8 µM)
5 | CCCCCCCCCCCCN1C(=O)c2cccc3c(N4CCN(C(=O)/C(=N\OC)c5csc(N)n5)CC4)ccc(c23)C1=O | 16 (≈ 25.3 µM) | 32 (≈ 50.6 µM) | 64 (≈ 101 µM) | 64 (≈ 101 µM) | 64 (≈ 101 µM) | 128 (≈ 202 µM) | 359 | 128 (≈ 202 µM) | 16 (≈ 25.3 µM) | 64 (≈ 101 µM) | 128 (≈ 202 µM) | 64 (≈ 101 µM)
6 | CO/N=C(\C(=O)N1CCN(c2ccc3c4c(cccc24)C(=O)N(c2nnc(C)s2)C3=O)CC1)c1csc(N)n1 | 32 (≈ 56.9 µM) | 16 (≈ 28.4 µM) | 32 (≈ 56.9 µM) | 4 (≈ 7.11 µM) | 32 (≈ 56.9 µM) | 32 (≈ 56.9 µM) | 265 | 64 (≈ 114 µM) | 64 (≈ 114 µM) | 1 (≈ 1.78 µM) | 16 (≈ 28.4 µM) | 4 (≈ 7.11 µM)
7 | CO/N=C(\C(=O)N1CCN(c2ccc3c4c(cccc24)C(=O)N(CCO)C3=O)CC1)c1csc(N)n1 | 16 (≈ 31.5 µM) | 16 (≈ 31.5 µM) | 16 (≈ 31.5 µM) | 16 (≈ 31.5 µM) | 64 (≈ 126 µM) | 64 (≈ 126 µM) | 214 | 16 (≈ 31.5 µM) | 64 (≈ 126 µM) | 2 (≈ 3.93 µM) | 32 (≈ 62.9 µM) | 64 (≈ 126 µM)
8 | CO/N=C(\C(=O)N1CCN(c2ccc3c4c(cccc24)C(=O)N(O)C3=O)CC1)c1csc(N)n1 | 2 (≈ 4.16 µM) | 8 (≈ 16.6 µM) | 64 (≈ 133 µM) | 32 (≈ 66.6 µM) | 64 (≈ 133 µM) | 64 (≈ 133 µM) | 277 | 32 (≈ 66.6 µM) | 64 (≈ 133 µM) | 16 (≈ 33.3 µM) | 32 (≈ 66.6 µM) | 16 (≈ 33.3 µM)
9 | CCON1C(=O)c2cccc3c(N4CCN(C(=O)/C(=N\OC)c5csc(N)n5)CC4)ccc(c23)C1=O | 2 (≈ 3.93 µM) | 8 (≈ 15.7 µM) | 64 (≈ 126 µM) | 64 (≈ 126 µM) | 32 (≈ 62.9 µM) | 64 (≈ 126 µM) | 509 | 64 (≈ 126 µM) | 128 (≈ 252 µM) | 8 (≈ 15.7 µM) | 32 (≈ 62.9 µM) | 16 (≈ 31.5 µM)
10 | CO/N=C(\C(=O)N1CCN(c2ccc3c4c(cccc24)C(=O)N(N)C3=O)CC1)c1csc(N)n1 | 32 (≈ 66.7 µM) | 32 (≈ 66.7 µM) | 16 (≈ 33.4 µM) | 2 (≈ 4.17 µM) | 32 (≈ 66.7 µM) | 64 (≈ 133 µM) | 250 | 32 (≈ 66.7 µM) | 64 (≈ 133 µM) | 4 (≈ 8.34 µM) | 64 (≈ 133 µM) | 32 (≈ 66.7 µM)
11 | CO/N=C(\C(=O)N1CCN(c2ccc3c4c(cccc24)C(=O)N(NCCO)C3=O)CC1)c1csc(N)n1 | 16 (≈ 30.6 µM) | 64 (≈ 122 µM) | 32 (≈ 61.1 µM) | 2 (≈ 3.82 µM) | 32 (≈ 61.1 µM) | 128 (≈ 244 µM) | 325 | 8 (≈ 15.3 µM) | 64 (≈ 122 µM) | 4 (≈ 7.64 µM) | 64 (≈ 122 µM) | 16 (≈ 30.6 µM)
12 | CO/N=C(\C(=O)N1CCN(c2ccc3c4c(cccc24)C(=O)N(C2CCCC2)C3=O)CC1)c1csc(N)n1 | 8 (≈ 15 µM) | 16 (≈ 30 µM) | 64 (≈ 120 µM) | 64 (≈ 120 µM) | 32 (≈ 60.1 µM) | 64 (≈ 120 µM) | 278 | 64 (≈ 120 µM) | 64 (≈ 120 µM) | 8 (≈ 15 µM) | 32 (≈ 60.1 µM) | 32 (≈ 60.1 µM)

From ChEMBL document CHEMBL5042496, “An unanticipated discovery towards novel naphthalimide corbelled aminothiazoximes as potential anti-MRSA agents and allosteric modulators for PBP2a” (Eur J Med Chem, 2022)
